# “Also recorded” adds a separate entry of the source. Where two headings read alike, the source gives them in different places.
# What was measured:
# [1] = target: α-glucosidase (EC 3.2.1.20. from Baker's Yeast) (Saccharomyces cerevisiae, UniProt P53341); experiment: α-Glucosidase enzymatic assay (pNPG hydrolysis) and kinetic analysis; assay type: biochemical; conditions: for α-Glucosidase type of inhibition: Lineweaver–Burk and Dixon plots; for Vmax / Kik/Kiv: α-glucosidase, pNPG; for Kik/Kiv: Yang's method
# Description: The α-glucosidase inhibitory activity was measured using reported experimental method with slight modifications. Phosphate buffer [50 mM potassium phosphate (pH 6.8)] was used for the whole assay. p-nitrophenyl-α-D-glucopyranoside (pNPG) was used as substrate, whose concentration 1.2 mM was prepared in phosphate buffer. Stock solution of α-glucosidase (EC 3.2.1.20. from Baker’s Yeast) containing 0.45 units of enzyme was also prepared in phosphate buffer. DMSO was used as a solvent for dissolving the test compounds, which were then diluted to their respective concentrations. Enzymatic assay was performed by mixing 40 μl of substrate (final concentration 0.15 mM) with 10 μl of inhibitors/vehicle, 130 μl phosphate buffer and 20 μl of enzyme in 96 well plate. As a result of the catalytic reaction, p-nitrophenol was produced as a reaction product which was subsequently measured using spectra max M3 multi-mode microplate reader (Molecular Devices) at 37 °C, at 405 nm for 15 min. […] The experiments were performed in triplicate.
# (§1) Lineweaver–Burk plots were used for the analysis of enzyme’s inhibitory kinetics, caused by the tested bioactive compounds, and its comparison was performed with the data collected in the absence of inhibitors. Steady-state rates were determined at different inhibitor concentrations and at changing concentrations of substrate, then enzyme inhibition mechanism and related kinetic parameters were determined. Where applicable, KI and KIS, the two inhibition constants, when inhibitor binds with either free enzyme or the complex of enzyme–substrate, were derived from secondary plots of the slopes of the straight lines and vertical intercept (1/V^appmax), versus inhibitors concentrations. Equations (1)–(3) are the representatives equations for derivation of KI and KIS, respectively.
# (§2) To determine enzyme inhibition parameters, an experiment was performed having substrate concentrations range (pNPP; 0.4–1.6 mM, pNPG; 0.075–0.3 mM), and different concentrations of tested compound, as indicated. To find out each curve parameter, a nonlinear regression program was used for data analysis using sigma Plot. Similarly Km and Vmax were derived from Lineweaver–Burk plots. Kik and Kiv rate constants were calculated according to Equations (4) and (5) proposed by Yang’s method. While Excel was used for linear regression analysis. (4) Km=Km,0×(1+[I]/Kik) (5) Vm=[…]
# [2] = target: T1, recombinant human protein tyrosine phosphate 1B (PTP1B, EC 3. 1. 3. 48) (Homo sapiens, UniProt P18031); experiment: biochemical; assay type: biochemical; set-up: Vmax: unit not given here; conditions: for PTP1B type of inhibition: Lineweaver–Burk / secondary plots; for Vmax / Kik/Kiv: pNPP; for Kik/Kiv: Yang's method
# T1 sequence (P18031 1-435): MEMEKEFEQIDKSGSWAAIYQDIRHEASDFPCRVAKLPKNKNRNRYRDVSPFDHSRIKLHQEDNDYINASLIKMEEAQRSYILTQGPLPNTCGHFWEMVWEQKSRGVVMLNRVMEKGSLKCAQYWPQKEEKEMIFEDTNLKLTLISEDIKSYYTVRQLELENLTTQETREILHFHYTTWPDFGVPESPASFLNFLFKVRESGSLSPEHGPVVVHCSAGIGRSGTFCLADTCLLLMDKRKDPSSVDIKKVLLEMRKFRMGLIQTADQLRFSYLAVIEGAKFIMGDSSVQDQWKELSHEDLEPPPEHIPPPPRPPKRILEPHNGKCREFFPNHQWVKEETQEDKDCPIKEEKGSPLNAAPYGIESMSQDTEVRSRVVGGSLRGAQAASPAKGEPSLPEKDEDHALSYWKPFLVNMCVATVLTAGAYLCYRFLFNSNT
# Description: The PTP1B inhibitory assay was carried out using a slight modification to literature reported method. p-nitrophenyl phosphate (pNPP) was used as a substrate for the measurement of enzyme activity. Buffer solution consisted of 25 mM Tris–HCl (pH 7.5), 2 mM β-mercaptoethanol, 1 mM (ethylenediaminetetraacetic acid) EDTA, and 1 mM dithiothreitol (DTT). The assay was performed by adding 10 μL test compound solution to 20 μL of enzyme (1 μg/ml), and then mixing with 40 μL of 4 mM pNPP in 130 μL of the given buffer using 96 well plate at 37 °C for 10 min. […] Lineweaver–Burk and Dixon plots methods were used to determine kinetic parameters. Sigma Plot (SPCC Inc., Chicago, IL) was used to calculate these parameters.
# as §1, §2
# First of all, the individual isolated constituents (1–8) from P. tomentosa fruits were tested in an in vitro PTP1B inhibition assay, using recombinant human protein tyrosine […] 1B (EC 3. 1. 3. 48)^1.
# [3] = PTP1B, secondary plots, read-out: KI (inhibitor binds with free enzyme)
# [4] = from Dixon plots, read-out: PTP1B Ki (inhibition constant)
# [5] = pNPP substrate, triplicate, read-out: PTP1B IC50
# α-glucosidase (EC 3.2.1.20. from Baker's Yeast), sequence (P53341 whole entry): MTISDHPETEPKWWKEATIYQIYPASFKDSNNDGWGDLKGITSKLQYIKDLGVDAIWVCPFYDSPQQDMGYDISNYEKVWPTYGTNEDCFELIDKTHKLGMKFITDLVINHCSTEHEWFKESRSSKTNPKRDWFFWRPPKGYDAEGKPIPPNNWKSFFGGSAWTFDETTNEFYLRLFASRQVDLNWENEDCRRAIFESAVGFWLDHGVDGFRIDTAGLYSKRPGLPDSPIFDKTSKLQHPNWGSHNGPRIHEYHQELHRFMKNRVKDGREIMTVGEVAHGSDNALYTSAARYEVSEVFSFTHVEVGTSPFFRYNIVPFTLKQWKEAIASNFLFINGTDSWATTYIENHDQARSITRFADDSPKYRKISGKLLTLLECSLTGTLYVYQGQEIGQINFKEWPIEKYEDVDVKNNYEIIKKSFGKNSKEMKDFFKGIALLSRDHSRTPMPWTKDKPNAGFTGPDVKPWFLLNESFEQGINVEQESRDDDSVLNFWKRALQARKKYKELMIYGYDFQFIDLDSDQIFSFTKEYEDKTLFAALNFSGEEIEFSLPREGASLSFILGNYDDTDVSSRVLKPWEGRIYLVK
Compound,α-Glucosidase type of inhibition [1],PTP1B type of inhibition [2],"KIS (inhibitor binds with enzyme-substrate complex) ([2]; PTP1B, secondary plots) [µM]","Ki [2, 3] [µM]","Ki [2, 4] [µM]","IC50 [2, 5] [µM]",further results
"CC(C)=CCC/C(C)=C/Cc1c(O)cc2c(c1O)C(=O)C[C@@H](c1ccc(O)cc1)O2 [Compound 1, mimulone]",Noncompetitive,Mixed TypeⅠ; also recorded: mixed type Ι; also recorded: Mixed Type I,2.2 ± 0.1,,,,"Vmax ([1]; [I] 12.5 µM): 0.117; Kik/Kiv ([1]; [I] 12.5 µM): 12.42; Vmax ([1]; [I] 25 µM): 0.082; Kik/Kiv ([1]; [I] 25 µM): 19.34; Vmax ([1]; [I] 50 µM): 0.054; Kik/Kiv ([1]; [I] 50 µM): 27.48; IC50 [2]: 1.9 ± 0.1 µM; Ki ([2]; KI (inhibitor binds with free enzyme), PTP1B, secondary plots, text without unit): 0.4 µM; Ki ([2]; PTP1B Ki (inhibition constant), from Dixon plots): 0.8 ± 0.1 µM; Vmax ([2]; PTP1B, [I] 0.78 µM): 0.012; Kik/Kiv ([2]; PTP1B, [I] 0.78 µM): 2.660; Vmax ([2]; PTP1B, [I] 1.56 µM): 0.009; Kik/Kiv ([2]; PTP1B, [I] 1.56 µM): 3.335; Vmax ([2]; PTP1B, [I] 3.13 µM): 0.007; Kik/Kiv ([2]; PTP1B, [I] 3.13 µM): 3.694; KIS (inhibitor binds with enzyme-substrate complex) ([2]; PTP1B, secondary plots, text without unit): 2.2; reversibility of PTP1B inhibition ([2]; initial velocity versus enzyme concentration at different inhibitor concentrations): reversible inhibitor"
"COc1cc([C@@H]2CC(=O)c3c(cc(O)c(C/C=C(\C)CCC=C(C)C)c3O)O2)ccc1O [Compound 2, 3′-O-methyldiplacone]",Noncompetitive,Mixed TypeⅠ; also recorded: Mixed Type I,3.7 ± 0.2,2.6 ± 0.1,3.2 ± 0.2,3.9 ± 0.3,
"COc1ccc([C@@H]2CC(=O)c3c(cc(O)c(C/C=C(\C)CCC=C(C)C)c3O)O2)cc1O [Compound 3, 4′-O-methyldiplacone]",Noncompetitive,Mixed TypeⅠ; also recorded: Mixed Type I,10.1 ± 0.4,5.7 ± 0.3,8.1 ± 0.6,7.8 ± 0.6,
"COc1c(O)cc(C2CC(=O)c3c(cc(O)c(C/C=C(\C)CCC=C(C)C)c3O)O2)cc1O (stereo not drawn) [Compound 4, 6-geranyl-3′,5,5′,7-tetrahydroxy-4′-methoxyflavanone]",Noncompetitive,Mixed TypeⅠ; also recorded: Mixed Type I,11.2 ± 0.4,5.5 ± 0.3,6.1 ± 0.5,5.9 ± 0.4,
"COc1cc([C@@H]2CC(=O)c3c(cc(O)c(C/C=C(\C)CCC=C(C)C)c3O)O2)cc(OC)c1O [Compound 5, 3′-O-Methyl-5′-O-methyldiplacone]",Noncompetitive,Mixed TypeⅠ; also recorded: Mixed Type I,4.6 ± 0.2,2.8 ± 0.2,3.5 ± 0.3,3.8 ± 0.3,
"COc1cc([C@H]2Oc3cc(O)c(C/C=C(\C)CCC=C(C)C)c(O)c3C(=O)[C@@H]2O)ccc1O [Compound 6, 3′-O-methyldiplacol]",Noncompetitive,Mixed TypeⅠ; also recorded: mixed type Ι; also recorded: Mixed Type I,5.2 ± 0.2,3.5 ± 0.2,3.8 ± 0.3,4.9 ± 0.5,
"COc1ccc([C@H]2Oc3cc(O)c(C/C=C(\C)CCC=C(C)C)c(O)c3C(=O)[C@@H]2O)cc1O [Compound 7, 4′-O-methyldiplacol]",Noncompetitive,Mixed TypeⅠ; also recorded: Mixed Type I,13.7 ± 0.6,6.9 ± 0.4,7.9 ± 0.4,8.2 ± 0.6,
COc1c(O)cc([C@H]2Oc3cc(O)c(C/C=C(\C)CCC=C(C)C)c(O)c3C(=O)[C@@H]2O)cc1O [Compound 8],Noncompetitive,Mixed TypeⅠ; also recorded: Mixed Type I,10.3 ± 0.5,5.9 ± 0.3,6.2 ± 0.4,6.6 ± 0.5,
"[Na+].[Na+].[Na+].[O]=[V]([O-])([O-])[O-] [NaVO4, reference compound]",,,,,,,"IC50 ([1]; pNPG substrate, triplicate): > 200 µM"
